According to publication PMC11467737, “Osteocalcin binds to a GPRC6A Venus fly trap allosteric site to positively modulate GPRC6A signaling” (FASEB BioAdvances, 2024):
Residue numbers refer to the chain shown, from its start. Bridge positions count the residues as written; N and C are the ends. Ends that are not written are not given here.

How the values were obtained:
[1] = target: T1, K352E hGPRC6A (Homo sapiens, UniProt Q5T6X5, K352E); experiment: ERK activation in HEK-293 cells transfected with K352E hGPRC6A; format: cell-based; conditions: K352E mutant; for ERK activation by Ocn small fragments: fragment at 20 nM, Figure 6D
T1 construct: expressed in transfected cells; host or cells: HEK-293, pcDNA3
T1 sequence (Q5T6X5 19-926 K352E): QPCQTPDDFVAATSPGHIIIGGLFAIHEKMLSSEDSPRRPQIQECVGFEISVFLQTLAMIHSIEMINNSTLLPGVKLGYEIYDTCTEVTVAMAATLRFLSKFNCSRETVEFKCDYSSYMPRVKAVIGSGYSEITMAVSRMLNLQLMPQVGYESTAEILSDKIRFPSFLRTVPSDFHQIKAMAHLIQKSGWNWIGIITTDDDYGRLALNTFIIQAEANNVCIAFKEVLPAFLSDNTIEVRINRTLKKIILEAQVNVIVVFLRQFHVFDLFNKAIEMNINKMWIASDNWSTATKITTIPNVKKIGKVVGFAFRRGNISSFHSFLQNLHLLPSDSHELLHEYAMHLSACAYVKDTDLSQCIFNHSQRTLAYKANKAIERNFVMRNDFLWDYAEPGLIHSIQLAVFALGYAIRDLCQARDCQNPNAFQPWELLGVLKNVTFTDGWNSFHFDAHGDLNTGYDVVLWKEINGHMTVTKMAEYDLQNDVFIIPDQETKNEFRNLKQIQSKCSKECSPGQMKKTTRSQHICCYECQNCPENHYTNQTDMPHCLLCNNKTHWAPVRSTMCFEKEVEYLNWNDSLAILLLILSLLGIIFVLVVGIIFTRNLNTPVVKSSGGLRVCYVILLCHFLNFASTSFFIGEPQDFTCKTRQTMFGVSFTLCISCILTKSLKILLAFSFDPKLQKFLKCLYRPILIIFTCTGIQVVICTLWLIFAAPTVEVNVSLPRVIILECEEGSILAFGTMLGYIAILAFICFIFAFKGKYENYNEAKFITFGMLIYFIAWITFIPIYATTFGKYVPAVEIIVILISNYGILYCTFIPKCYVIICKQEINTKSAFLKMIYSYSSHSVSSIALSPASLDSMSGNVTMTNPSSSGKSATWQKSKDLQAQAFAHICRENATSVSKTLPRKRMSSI
Method: (§1) All culture reagents were from Invitrogen (Waltham, MA, USA). Human embryonic kidney HEK‐293 cells were obtained from American Type Culture Collection and cultured in DMEM medium supplemented with 10% fetal bovine serum and 1% Penicillin/Streptomycin (P/S). Briefly, HEK‐293 cells transfected with/without human GPRC6A isoforms cDNA plasmids were starved by overnight incubation in serum‐free DMEM/F12 containing 0.1% bovine serum albumin (BSA) and stimulated with various ligands at different doses. ERK activation was assessed 20 min after treatment by using ERK1/2 (phospho‐T203/Y204) ELISA Kit (Invitrogen; Waltham, MA, USA) corrected for the amount of total ERK using ERK1/2 (Total) ELISA Kit (Invitrogen; Waltham, MA, USA) to measure ERK levels.
(§2) In‐vitro mutagenesis by PCR‐mediated recombination QuikChange II XL Site‐Directed Mutagenesis Kit (Agilent) was performed using the cDNA of human GPRC6A cloned in the vector pcDNA3 (Invitrogen) as a template. The primer sets are as follows. K352E.sen: […]; K352E.antisen: […]; H355P.sen: […]; H355P.antisen: […]; K352E/H355P.sen: […]; and K352E/H355P.antisen: […]. All mutants were confirmed by sequencing.

[2] = target: T2, K352E/H355P hGPRC6A (Homo sapiens, UniProt Q5T6X5, H355P/K352E); experiment: ERK activation in HEK-293 cells transfected with K352E/H355P hGPRC6A; format: cell-based; conditions: for ERK activation by Ocn small fragments: K352E/H355P double mutant, fragment at 20 nM, Figure 6D
T2 construct: expressed in transfected cells; host or cells: HEK-293, pcDNA3
T2 sequence (Q5T6X5 19-926 K352E/H355P): T1 sequence (Q5T6X5 19-926 K352E) with H337P
Method: as §1, §2

[3] = tested on: GPRC6A isoforms 1, 2 and 3; experiment: GPRC6A signaling in GPRC6A isoforms (read-out not given); format: cell-based, human
Method: as §1
HEK‐293 transfected with human GPRC6A isoform cDNA plasmids cells (10^5 cells/well)[30] were cultured in 24‐well plates in DMEM supplemented with 10% fetal bovine serum and 1% penicillin/streptomycin (100 U/mL of penicillin and 100 μg/mL of streptomycin) for 48 h followed by 4 h incubation in DMEM/F12 containing 0.1% BSA and 0.5 mM IBMX to achieve quiescence and preventing cAMP degradation. […] Then, the reaction was stopped, and the cells lysed with 0.5 mL 0.1 N HCl. cAMP levels were measured by using Cyclic AMP EIA kit (Cayman Chemical; Ann Arbor, MA, USA) following the manufacture's protocol.

osteocalcin (YLYQWLGAPVPYPDPLEPRREVCELNPDCDELADHIGFQEAYRRFYGPV; not fully specified; ends and bridges not checked; UniProt P02818 52-100, looked up) [Ocn 1–49, full human Ocn (49 aa) synthesized by BioMatik; methods also describe decarboxylated Ocn purified from bovine tibial bone, reference compound]
ERK phosphorylation, dose response of full-length Ocn, versus wild-type receptor ([1]; Figure 6B): significantly decreased
ERK phosphorylation, dose response of full-length Ocn, versus wild-type receptor ([2]; K352E/H355P mutant, Figure 6B): significantly decreased

RFYGPV [Ocn 44–49, synthesized human Ocn C‐terminal hexapeptide]
ERK activation by Ocn small fragments [1]: significantly attenuated
ERK activation by Ocn small fragments [2]: partially activate
Activation of GPRC6A signaling in GPRC6A isoforms ([3]; all isoforms, including isoforms 2 and 3 with deletions in the VFT): activated GPRC6A signaling in all GPRC6A isoforms

REVCELNPDC (disulfide 4-10 (inferred)) [Ocn 20–29, synthesized human Ocn decapeptide fragment located in the middle of the protein]
ERK activation by Ocn small fragments [1]: no response
ERK activation by Ocn small fragments [2]: no response
Response of GPRC6A isoforms 2 and 3 ([3]; isoforms 2 and 3): diminished responses
